Results published in patent US20250002514A1, “AMORPHOUS FORM OF BISMUTH-1,2-ETHANEDITHIOL AND METHODS OF MAKING” (Microbion Corporation, priority 2021, published 2025).
Like-named read-outs stand apart in the source and are kept apart here.

Experiments:
[1] = BisEDT single-dose rat PK studies comparing inhalation, IV and oral dosing; format: in vivo
Description: Based on existing in vivo and in vitro toxicology data as well as rat PK and in vitro MIC data, BisEDT suspension for inhalation can be reliably administered at doses providing efficacious lung levels that are tolerated, and it is therefore a viable clinical development candidate. […] 24 hours after single inhalation dose 4,093 ng/g was measured in the lung tissue (which equates to 123 μg/mL in lung fluid) and 4 days (96 hrs) after single dose 2,600 ng/g in lung tissue (which equates to 78 μg/mL in lung fluid). Without being bound by any particular theory, it is believed BisEDT's low solubility provides slow dissolution and long exposure on lung surface fluids with limited systemic exposure via diffusion through lung epithelium. The lung appears to act as a depot for slow systemic exposure with about 10× lower systemic levels than seen in the lung. The terminal phase of the IV data appears to show slow elimination after initial tissue distribution (FIG. 10).

[2] = Nose-only inhalation exposure in F344 rats: whole blood and lung BisEDT concentration (ICP-MS bismuth as surrogate); format: in vivo; details: rat; for concentration at 8 h: nominal time 8 hr; for concentration at 12 h: nominal time 12 hr; for concentration at 24 h: nominal time 24 hr; for concentration at 30 h: nominal time 30 hr
Description: Inhalation Exposure: The initial exposure of BisEDT (Bismuth-1,2-ethanedithiol) was formulated as a solution at 100 mg/mL in suspension in 0.5% Tween 80, 10 mM sodium phosphate, pH 7.4, in NaCl (adjusted to approximately 300 mOsm). Aerosols were generated with a commercial compressed air jet nebulizer, Pad LC Plus, operated with an inlet pressure of 20 psi. The aerosols were transitioned into a rodent nose-only inhalation exposure system. The exposure system was operated with an inlet air flow of […] and an exhaust air flow of −5 L/min.
Detailed gross necropsies were performed on all animals (found dead, moribund, or scheduled necropsy) and consisted of a complete external and internal examination including body orifices and cranial, thoracic, and abdominal organs and tissues. All gross findings will be recorded in descriptive terms. […] Lungs collected and weighed.
Tables 6 and 7 below show whole blood BisEDT versus time data and lung BisEDT concentration at sacrifice time data respectively.

[3] = system: Pseudomonas aeruginosa strain PA01; test: Bacterial killing curves with and without 10% cystic fibrosis patient sputum; format: cell-based
Description: Bacterial killing curves with BisEDT and BisBDT were performed in the presence of […] cystic fibrosis patient sputum in order to determine whether the test compounds are potentially inactivated by sputum. The assay is described in King P, Lomovskaya O, Griffith D C, Burns J L, Dudley M N. In vitro pharmacodynamics of levofloxacin and other aerosolized antibiotics under multiple conditions relevant to chronic pulmonary infection in cystic fibrosis. Antimicrob Agents Chemother, 54:143-8, 2010.
Sputum was collected from cystic fibrosis (CF) patient volunteers without recent antibiotic exposure after appropriate IRB approval. Sputum was sterilized by UV irradiation and sterilization was confirmed by culture. An overnight culture of Pseudomonas aeruginosa strain PA01 was used to inoculate fresh cultures in cation-adjusted Mueller-Hinton broth or cation-adjusted Mueller-Hinton broth plus 10% CF patient sputum. Drugs were added to individual culture tubes with and without sputum at the following final concentrations: • BisEDT: 0.1 μg/mL, 2 μg/mL, and 20 μg/mL • BisBDT: 0.1 μg/mL. 4 μg/mL, and 20 μg/mL
Tobramycin at 1 μg/mL was used as a comparator drug control known to be partially inactivated by patient sputum. Cultures were incubated with shaking at 37° C. and aliquots were removed every hour for quantitation of colony forming units per mL (CFU/mL) by serial dilution and plating on tryptic soy agar for a total of 6 hours. CFU were counted after incubation of the plates overnight at 37° C.

[4] = both sexes, F344, whole blood, inhaled, single inhalation dose 47 μg/kg, read-out: Whole blood Mean BisEDT Conc
[5] = both sexes, F344, whole blood, inhaled, single inhalation dose 124 μg/kg, read-out: Whole blood Mean BisEDT Conc
[6] = both sexes, F344, whole blood, inhaled, single inhalation dose 400 μg/kg, read-out: Whole blood Mean BisEDT Conc
[7] = both sexes, F344, whole blood, inhaled, single inhalation dose 3000 μg/kg, read-out: Whole blood Mean BisEDT Conc

## C1C[S][Bi]([S]CC[S][Bi]2[S]CC[S]2)[S]1 [BisEDT, Bismuth-1,2-ethanedithiol]
[1]; 100 μg/kg inhalation and IV and 250 μg/kg oral, single dose
  Tolerability: tolerated
[1]; after inhalation dosing
  Systemic levels lower than seen in the lung (fold): about 10 ×
[1]; single 100 μg/kg IV dose
  Duration of initial distribution into tissues after IV dosing (biphasic pattern): 18 h
  Half-life of lung levels after IV dosing: about 24 hour
  Lung levels after IV dosing vs inhalation group: < 5%
[1]; single 100 μg/kg inhalation dose
  Blood exposure after inhalation dosing: sustained, moderate, blood exposure with relatively stable concentrations across time
[1]; single 250 μg/kg oral dose
  Blood concentrations after oral dosing: very low, but sustained and measurable
  Lung levels after oral dosing: no lung levels
[1]; single inhalation dose (100 μg/kg lung deposited)
  Half-life in lung tissue after inhalation dosing: about 4 days
[2]; [4]
  concentration at 8 h: 114 ng/mL
  concentration at 12 h: 98 ng/mL
  concentration at 24 h: 282 ng/mL
  concentration at 30 h: 373 ng/mL
[2]; [5]
  concentration at 8 h: 247 ng/mL
  concentration at 12 h: 187 ng/mL
  concentration at 24 h: 571 ng/mL
  concentration at 30 h: 668 ng/mL
[2]; [6]
  concentration at 8 h: 1700 ng/mL
  concentration at 12 h: 1250 ng/mL
  concentration at 24 h: 2700 ng/mL
  concentration at 30 h: 2740 ng/mL
[2]; both sexes, F344, whole blood, inhaled, single inhalation dose 3000 μg/kg, nominal time 1 hr, read-out: Whole blood Mean BisEDT Conc
  concentration at 1 h: 485 ng/mL
[2]; both sexes, F344, whole blood, inhaled, single inhalation dose 3000 μg/kg, nominal time 2 hr, read-out: Whole blood Mean BisEDT Conc
  concentration at 2 h: 2500 ng/mL
[2]; [7]
  concentration at 8 h: 6570 ng/mL
  concentration at 24 h: 20500 ng/mL
[2]; single inhalation dose 47 μg/kg, sac time 30 hr
  Lung Mean BisEDT Conc at sacrifice: 4.8 ng/g
[2]; single inhalation dose 124 μg/kg, sac time 30 hr
  Lung Mean BisEDT Conc at sacrifice: 5.9 ng/g
[2]; single inhalation dose 400 μg/kg, sac time 30 hr
  Lung Mean BisEDT Conc at sacrifice: 12.1 ng/g
[2]; single inhalation dose 3000 μg/kg, sac time 24 hr
  Lung Mean BisEDT Conc at sacrifice: 82.3 ng/g
[3]; 0.1 μg/mL, 6 hour assay
  Bactericidal activity against PA01 at 0.1 μg/mL: not bactericidal
[3]; 10% CF patient sputum in cation-adjusted Mueller-Hinton broth
  Effect of CF patient sputum on bactericidal activity: partially inhibited
[3]; overall conclusion of killing curves
  Bactericidal activity against Pseudomonas aeruginosa strain PA01 in this assay: bactericidal

## NC[C@H]1O[C@H](O[C@H]2[C@H](O)[C@@H](O[C@H]3O[C@H](CO)[C@@H](O)[C@H](N)[C@H]3O)[C@H](N)C[C@@H]2N)[C@H](N)C[C@@H]1O [tobramycin, reference compound]
[3]; tobramycin 1 μg/mL, 10% CF patient sputum, most time points
  CFU higher in cultures with sputum compared to cultures without sputum: 0.5-1 log CFU/mL
